Several values for one entry are separate records, joined by “and”; a condition that tells them apart may be missing. Equal entries are not always repeated. Entries after “also recorded” stand apart in the source; their conditions may differ. Where two headings read alike, the source gives them in different places. Ends that are not written are not given here.
How the values were obtained:
rat TRPV1 = target: T1, rat TRPV1 (Rattus norvegicus, UniProt O35433); test: capsaicin-induced 45Ca2+-uptake in TRPV1-NIH3T3 cells; type: cell-based; conditions: for IC50 / antagonist activity on capsaicin-induced Ca2+-uptake (in words): 2 µM capsaicin; for IC50: 10 min, 2×10^−5 M extracellular Ca2+, room temperature; for kinetics of Ca2+-transport inhibition: increasing concentrations of capsaicin; for effect on Ca2+-uptake at low concentrations in the presence of capsaicin: 2 mM capsaicin (so in the source)
T1 construct: expressed in transfected cells
T1 sequence (O35433 whole entry): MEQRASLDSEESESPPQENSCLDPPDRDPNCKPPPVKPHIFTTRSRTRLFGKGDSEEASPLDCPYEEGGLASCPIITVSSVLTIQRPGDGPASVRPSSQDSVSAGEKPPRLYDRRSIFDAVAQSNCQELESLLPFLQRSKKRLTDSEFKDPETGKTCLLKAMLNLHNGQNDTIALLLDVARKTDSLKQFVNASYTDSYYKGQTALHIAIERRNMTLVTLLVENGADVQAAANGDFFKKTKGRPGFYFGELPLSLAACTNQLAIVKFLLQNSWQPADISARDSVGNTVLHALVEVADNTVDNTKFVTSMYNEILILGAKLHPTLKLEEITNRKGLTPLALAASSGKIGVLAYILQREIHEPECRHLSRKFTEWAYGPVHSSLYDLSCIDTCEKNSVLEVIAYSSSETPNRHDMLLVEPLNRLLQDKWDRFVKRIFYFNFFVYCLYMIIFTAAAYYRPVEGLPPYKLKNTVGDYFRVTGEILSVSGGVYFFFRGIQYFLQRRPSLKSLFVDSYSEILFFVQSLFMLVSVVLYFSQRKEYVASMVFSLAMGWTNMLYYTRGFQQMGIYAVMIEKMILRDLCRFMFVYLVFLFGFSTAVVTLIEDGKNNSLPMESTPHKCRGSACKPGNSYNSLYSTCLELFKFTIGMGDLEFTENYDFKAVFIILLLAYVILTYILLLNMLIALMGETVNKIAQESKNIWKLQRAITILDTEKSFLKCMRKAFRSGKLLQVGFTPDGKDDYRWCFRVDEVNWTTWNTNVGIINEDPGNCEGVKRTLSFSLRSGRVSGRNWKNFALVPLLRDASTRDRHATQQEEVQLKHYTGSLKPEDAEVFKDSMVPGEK
Method: Assays were carried out in 2×10^−5 M extracellular Ca^2+ in 96 well plate formats at room temperature (22°C) for 10 min with robotic liquid handling. […] We hypothesized that calmodulin antagonists and some registered drugs may exert their blocking effect with another mechanisms on TRPV1 and not necessarily on their conventional target.
TRPV1-NIH3T3 mouse fibroblast line, ectopically expressing the rat TRPV1 was established previously.
(§1) Vanilloid agonist inducible calcium transport was assayed in adherent cell lines ectopically expressing the C-terminally ε-tagged rat TRPV1 (3×10^4 cells/well) and primary cultures prepared from embryonic DRG, seeded in poly-D lysine/collagen coated 96 well plates. […] The previously established cell lines and standardized DRG cultures were extensively characterized for functional cell-based TRPV1 studies [1]–[4]. Immediately before the transport assay, cells were adapted to room temperature (20°C) for 5 min in HCM. ^45Ca^2+-uptake was performed for 10 min at 20°C in HCM using 0.1 µCi ^45Ca^2+ as radioactive tracer in a 100 µl final volume. To stop ^45Ca^2+-uptake, cells were rapidly changed back into 0.2 ml HCM, washed 4 additional times with 0.2 ml HCM, and then lysed in 80 µl/well RIPA buffer (50 mM Tris-HCl, pH 7.5, 150 mM NaCl, 1% Triton X-100, 0.5% deoxycholate, 0.1% SDS, 5 mM EDTA) for 30 min [1]–[4]. Aliquots of the solubilized cell extracts were mixed with 120 µl Microscint-40 and counted in a 96 well plate liquid scintillation counter (TopCount-NXT, Packard).

[1] = tested on: intermediate Ca2+-activated K+ channels (IKCa); conditions: human erythrocytes; cited from earlier work
formalin-induced pain = tested on: formalin-induced pain; set-up: method as in PMID 8883861; conditions: rat, intrathecal; cited from earlier work
heat-induced tail-flick = tested on: heat-induced tail-flick; set-up: method as in PMID 8883861; conditions: cited from earlier work
TRPV1 = TRPV1 (Rattus norvegicus, UniProt O35433); test: capsaicin-induced 45Ca2+-uptake in primary rat embryonic DRG cultures; type: cell-based; set-up: sensory neurons, expressing TRPV1 endogenously; endogenous in cells; host or cells: primary cultures of embryonic rat dorsal root ganglia (E14, E16); conditions: rat embryonic DRG cultures
Sequence of TRPV1 (O35433 whole entry): as above
Method: Primary cultures were prepared from embryonic (E14) rat DRGs. Along with calmidazolium other polycyclic compounds were included in the vanilloid-induced ^45Ca^2+-transport assays.
Primary DRG cultures were prepared from E16 embryonic rats as described previously then plated in 15 cm Petri dishes for 4 h to remove the most adherent fibroblasts. For Ca^2+-uptake studies primary afferents neurons cultured in 96 well plates (3×10^3 cells/well), coated with poly-D lysine/collagen, which yielded both axons and dendrites bearing neurons due to neuronal growth factor supplementation in the culture medium [1]–[4]. The dendrites are large processes branching from the cell body that taper in diameter further from the cell body. The axons are a constant diameter and project over long distances from the cell body. Before the ion transport experiment, culture medium was removed and cells were washed three times. ^45Ca-uptake assays were carried out in “nominally zero Ca^2+” (i.e. 2×10^−5 M extracellular Ca^2+ ([Ca^2+]o) in 25 mM Tris-HCl buffered Hanks' balanced salt solution (pH 7.5), supplemented with 10 µM CaCl2 and 0.8 mM MgCl2medium (HCM) [1]–[4].
as §1

[2] = target: rat TRPV1 (vanilloid inducible Ca2+-channel/inflammatory pain receptor 1), C-terminally ε-tagged, in TRPV1-NIH3T3 cells (rat) (UniProt O35433)
Sequence of rat TRPV1 (vanilloid inducible Ca2+-channel/inflammatory pain receptor 1), C-terminally ε-tagged, in TRPV1-NIH3T3 cells (rat) (O35433 whole entry): as above

[3] = target: rat TRPV1 (vanilloid inducible Ca2+-channel/inflammatory pain receptor 1), C-terminally ε-tagged, in TRPV1-NIH3T3 cells (rat) (UniProt O35433); remark: listed apart in the source
[4] = read-out: IC50, inhibition of capsaicin-induced 45Ca2+-uptake

Q: Which IC50 (rat TRPV1; IC50, inhibition of capsaicin-induced 45Ca2+-uptake) does the source give for APETERAAVAIQAQFRKFQKKKAGS [camstatin] here?
A: The IC50 was 11 µM and 20 µM.

Q: What does the source list for `CN(C)CCCN1c2ccccc2Sc2ccc(Cl)cc21` [chlorpromazine]?
A: antagonist activity on capsaicin-induced Ca2+-uptake (in words) (rat TRPV1): full antagonists; IC50 (rat TRPV1; [4]): 70 µM; kinetics of Ca2+-transport inhibition (rat TRPV1): non-competitive inhibition kinetics

Q: Which IC50 (rat TRPV1; [4]) does the source give for `Fc1cc(F)cc(C[n+]2ccn(CC(OCc3ccc(Cl)cc3Cl)c3ccc(Cl)cc3Cl)c2)c1` (stereo not drawn) [M1, Miconazole 1] here?
A: Its IC50 is 8 µM.

Q: What does the source list for `NC(=O)N1c2ccccc2C=Cc2ccccc21` [carbamazepine]?
A: antagonist activity on capsaicin-induced Ca2+-uptake (in words) (rat TRPV1): inactive; antagonist activity on capsaicin-induced Ca2+-uptake (in words) (rat TRPV1; listed as Carbamazepine): completely inactive

Q: With `CN1CCN(CCCN2c3ccccc3Sc3ccc(C(F)(F)F)cc32)CC1` [trifluoperazine] as the molecule, how does the “antagonist activity on capsaicin-induced Ca2+-uptake (in words)” value (“antagonist activity” below) (rat TRPV1) read?
A: Its value is “full antagonists”.

Q: What about the IC50 (rat TRPV1; [4]) of the same molecule?
A: Its IC50 is 9 µM and < 10 µM.

Q: What about the “activity on IKCa channels (in words)” value [1] of the same molecule?
A: Its value is “inactive”.

Q: For `Clc1ccc(COC(Cn2cc[n+](CC3CCCCC3)c2)c2ccc(Cl)cc2Cl)c(Cl)c1` (stereo not drawn) [M2, Miconazole 2], which IC50 (rat TRPV1; [4]) is on record?
A: The IC50 was 8 µM.

Q: With `CN(C)CCC=C1c2ccccc2CCc2ccccc21` [amitriptyline] as the molecule, how does the IC50 (rat TRPV1; [4]) read?
A: Its IC50 is ~60 µM and 60 µM.

Q: Which “antagonist activity” value (rat TRPV1) does the source give for `OCCN1CCN(CCCN2c3ccccc3Sc3ccc(C(F)(F)F)cc32)CC1` [fluphenazine] here?
A: The value was “partial or weak inhibitors”.

Q: And the IC50 (rat TRPV1; [4])?
A: Its IC50 is roughly 250 µM.

Q: What about the “effect on Ca2+-uptake at low concentrations in the presence of capsaicin” value (“effect on Ca2+-uptake” for short) (rat TRPV1) of the same molecule?
A: The value was “increased Ca^2+-uptake”.

Q: For `NCC1(CC(=O)O)CCCCC1` [gabapentine], which “antagonist activity” value (rat TRPV1) is on record?
A: Its value is “partial inhibition”.

Q: With `NCCCCCCNS(=O)(=O)c1cccc2c(Cl)cccc12` [W-7, N- 6 – aminohexyl – 5 – chloro - 1 naphtalenesulfonamide] as the molecule, how does the “antagonist activity” value (rat TRPV1) read?
A: Its value is “partial or weak inhibitors”.

Q: And the IC50 (rat TRPV1; [4])?
A: Its IC50 is roughly 200 µM.

Q: And the “effect on Ca2+-uptake” value (rat TRPV1)?
A: The value was “increased Ca^2+-uptake”.

Q: What about the “activity on IKCa channels (in words)” value [1] of the same molecule?
A: The value was “inactive”.

Q: What about the “analgesia in both phases of formalin tests” value (formalin-induced pain) of the same molecule?
A: The value was “analgesic”.

Q: And the “effect on heat-induced tail-flick latency” value (heat-induced tail-flick)?
A: The value was “inhibit”.

Q: With `NCCCCNS(=O)(=O)c1ccc2c(Cl)cccc2c1` [W-13, N - (4 - Aminobutyl) – 5 - chloro-2-naphthalenesulfonamide] as the molecule, how does the “antagonist activity” value (rat TRPV1) read?
A: The value was “partial or weak inhibitors”.

Q: What about the IC50 (rat TRPV1; [4]) of the same molecule?
A: Its IC50 is greater than 300 µM.

Q: What about the “effect on Ca2+-uptake” value (rat TRPV1) of the same molecule?
A: The value was “increased Ca^2+-uptake”.

Q: For `N=C(N)NCCC[C@H](NC(=O)COCC(c1ccccc1)c1ccccc1)C(=O)O` [SB 290157, N2-[(2,2-Diphenylethoxy)acetyl]-L-arginine], which “blocking activity on capsaicin-induced Ca2+-uptake (in words)” value (“blocking activity” below) (TRPV1) is on record?
A: The value was “partial blocking activity”.

Q: With Camstatin (peptide) as the molecule, how does the inhibition of capsaicin (2 µM)-induced 45Ca2+-uptake in intact TRPV1-NIH3T3 cells, 10 min, camstatin co-incubated in the uptake medium [2] read?
A: The inhibition of capsaicin (2 µM)-induced 45Ca2+-uptake in intact TRPV1-NIH3T3 cells, 10 min, camstatin co-incubated in the uptake medium was 11 µM.

Q: What about the inhibition of capsaicin-induced Ca2+-uptake in TRPV1-NIH3T3 cells [3] of the same molecule?
A: The inhibition of capsaicin-induced Ca2+-uptake in TRPV1-NIH3T3 cells was 20 µM.

Q: Which “blocking activity” value (TRPV1) does the source give for `O=C1CSC(c2ccccc2Cl)c2cc(Cl)ccc2N1` (stereo not drawn) [CGP-37157, 7-Chloro - 5 - (2 - chlorophenyl) - 1,5 - dihydro - 4,1 – benzothiazepin - 2(3H) - one] here?
A: The value was “partially active”.

Q: What about the “blocking activity” value (TRPV1; listed as CGP 37157) of the same molecule?
A: Its value is “partial blocking activity”.

Q: For `COc1cc(CNC(=O)CCCC/C=C/C(C)C)ccc1O` [capsaicin], which ED100 for capsaicin-induction (rat TRPV1; pH 7.5) is on record?
A: The ED100 for capsaicin-induction was roughly 1 µM.

Q: Which “kinetics of Ca2+-transport inhibition” value (rat TRPV1) does the source give for `Oc1cc2c(cc1O)CN(C(=S)NCCc1ccc(Cl)cc1)CCC2` [capsazepine] here?
A: Its value is “shifted the capsaicin dose-response curves right”.

Q: With `Fc1ccc(C(c2ccc(F)cc2)N2CCN(C/C=C/c3ccccc3)CC2)cc1` [flunarizine] as the molecule, how does the “blocking activity” value (TRPV1) read?
A: Its value is “partially active; also recorded: partial blocking activity”.

— article PMC1890308, “Anti-calmodulins and Tricyclic Adjuvants in Pain Therapy Block the TRPV1 Channel” (PLoS ONE, 2007)
